Where two headings read alike, the source gives them in different places. Marks after values point to notes of the source that are not given here.
Tests used:
Fluid solvent properties = conditions: for Viscosity: 20° C.
Excerpt: One of ordinary skill in the art can readily determine the flash point of a fluid or blend (e.g., ASTM D92-78).
The evaporation rate should be suitable for the intended purpose. […] The fluid selected preferably will have a similar evaporation rate to the disadvantaged fluid being replaced, particularly in the case where a fluid blend is used and an acceptable evaporation profile is desired. It is convenient for the fluid selected to have an evaporation rate less than 12 times the evaporation rate of n-butyl acetate. Evaporation rates may also be given relative to n-butyl acetate at 1.0 (ASTM D3539-87). Ranges of evaporation rates important for different applications are 5-3, 3-2, 2-1, 1.0-0.3, 0.3-0.1, and <0.1, relative to n-butyl acetate at 1.0. The present invention is related to fluids and fluid blends that at least partially evaporate into the atmosphere during or after their application.

[1] = reported literature data, cited from earlier work
[2] = Stability to acid catalyst (pTSA) in acrylic solvent system, followed by gas chromatography; type: physicochemical; conditions: 0.5 wt % pTSA, 50° C.; for Wt. % of Solvent At One Week Decomposition Period / Wt. % of Solvent At Three Week Decomposition Period: nitrogen atmosphere, start = 100
Procedure: Acrylic solvent systems were prepared to test the stability of dimethyl carbonate to acid catalysts, which are commonly present in coating compositions. The formulations contained 29.9 wt % DMC, 28.7 wt % pentyl acetate, 20.2 wt % n-butyl acetate, 16.1 wt % n-butyl alcohol, 3.6 wt % methyl ethyl ketone, 1.5 wt % isopropyl alcohol. 2 wt % toluene as an internal standard. The latter materials were purchased from Aldrich Chemical Co.
Para toluene sulfonic acid (PTSA) was added to the above formulation (again, pTSA was purchased from Aldrich Chemical Co.), in the amount of 0.5 wt %. The solutions were sealed and placed in an oven at 50° C. under a nitrogen atmosphere. Samples were withdrawn at intervals for testing. The content of dimethyl carbonate was monitored over time by gas chromatographic analysis using an HP 5890 gas chromatograph. In a parallel experiment an equal amount of tert. Butyl acetate was used instead of DMC. The results are shown below in Table 8 (all percentages are by weight).

Excerpt for in vivo: One way to measure the toxic effects of a chemical is to measure the dose-effect relationship; the dose is usually measured in mg of chemical per kg of body mass. This is typically done experimentally by administering the chemical to mice or rats at several doses in the lethal range and plotting the logarithm of the dose versus the percentage of the population killed by the chemical. The dose lethal to 50% of the test population is called the median lethal dose (LD50) and is typically used as a guide for the toxicity of a chemical. […] EU (European Union) uses a cutoff of >2,000 mg/kg.

For `CC(C)=O` [Acetone], the “Boiling Temperature” value (Fluid solvent properties) was 56 °C, the “Evaporation Ratio to Butyl Acetate” value (Fluid solvent properties) was 18 and the “Hansen Solubility Parameter, H-Bouding” value (Fluid solvent properties) was 3.4. For the same compound, the “Hansen Solubility Parameter, Nonpolar” value (Fluid solvent properties) was 7.6, the “Hansen Solubility Parameter, Polar” value (Fluid solvent properties) was 5.1 and the “Hansen Solubility Parameter, Total” value (Fluid solvent properties) was 9.2. For the same compound, the “Specific Gravity” value (Fluid solvent properties) was 0.792, the Surface Tension (Fluid solvent properties) was 22.3 dyn/cm and the Viscosity (Fluid solvent properties) was 0.33 cps. The LD50 (in vivo) was 5800 mg/kg and the “Flash Point” value [1] was −20* ° C.

For `CCCCOC(C)=O` [Butyl Acetate], the “Flash Point” value [1] is given as 27 °C.

With `COC(=O)OC` [DMC, dimethyl carbonate] the “Boiling Temperature” value (Fluid solvent properties) was 90 °C, the “Evaporation Ratio to Butyl Acetate” value (Fluid solvent properties) was 3.2 and the “Specific Gravity” value (Fluid solvent properties) was 1.065. The Surface Tension (Fluid solvent properties) was 29 dyn/cm, the Viscosity (Fluid solvent properties) was 0.60 cps and the LD50 (in vivo) was 13000 mg/kg. The “Stability to acid catalysts (in words)” value [2] was “more stable to acid catalysts than is t-butyl acetate”, the “Wt. % of Solvent At One Week Decomposition Period” value [2] was 97.8 wt. % and the “Wt. % of Solvent At Three Week Decomposition Period” value [2] was 95.4 wt. %. The “Flash Point” value [1] was “+19 to +32* ° C”.

In the case of `COC(=O)C(C)(C)C` [MP, methyl pivalate], the “Boiling Temperature” value (Fluid solvent properties) is reported as 99 °C, the “Evaporation Ratio to Butyl Acetate” value (Fluid solvent properties) is reported as 2.2 and the “Flash Point” value (Fluid solvent properties) is reported as 27.2 °C. The “Specific Gravity” value (Fluid solvent properties) was 0.873, the Surface Tension (Fluid solvent properties) was 23.8 dyn/cm and the Viscosity (Fluid solvent properties) was 0.74 cps.

For `COC(C)=O` [methyl acetate], the “Flash Point” value [1] is listed as ~−12 °C and the “Flash Point” value ([1]; listed as Methyl acetate) is listed as “about −12 °C”.

For `CC(=O)OC(C)(C)C` [t-butyl acetate], the “Wt. % of Solvent At One Week Decomposition Period” value [2] was 54.4 wt. % and the “Wt. % of Solvent At Three Week Decomposition Period” value [2] was 17.2 wt. %.
